According to PubChem BioAssay AID2060500 (Molecular Pharmacology Branch, DTP, NCI, 2025):
Blank lines part the entries; values can stand above or below the compound they belong to.

Tested on: 596521-263-R-J1-PDC complex spheroids, viability % of control
Assay: Anticancer human tumor 596521-263-R-J1-PDC patient-derived soft tissue sarcoma cell line growth inhibition [GQUAD]
Conditions: for IC50: curve of first compound; for viability, T/C: stronger effect = lower value
Method in brief: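 Multi-cell-type spheroids of tumor cells with HUVEC and mesenchymal stem cells, treated with drug combinations. Concentrations descend in half-log steps from near clinical Cmax, or from 10 microM where Cmax is unknown; viability read-out.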

[1] = second compound 0.0316 µM, first compound 0.0316 µM
[2] = second compound 0.0316 µM, first compound 0.1 µM
[3] = second compound 0.0316 µM, first compound 0.316 µM
[4] = second compound 0.0316 µM, first compound 1 µM
[5] = second compound 0.0316 µM, first compound 3.16 µM
[6] = second compound 0.0316 µM, first compound 10 µM
[7] = second compound 0.1 µM, first compound 0.0316 µM
[8] = second compound 0.1 µM, first compound 0.1 µM
[9] = second compound 0.1 µM, first compound 0.316 µM
[10] = second compound 0.1 µM, first compound 1 µM
[11] = second compound 0.1 µM, first compound 3.16 µM
[12] = second compound 0.1 µM, first compound 10 µM
[13] = second compound 0.316 µM, first compound 0.0316 µM
[14] = second compound 0.316 µM, first compound 0.1 µM
[15] = second compound 0.316 µM, first compound 0.316 µM
[16] = second compound 0.316 µM, first compound 1 µM
[17] = second compound 0.316 µM, first compound 3.16 µM
[18] = second compound 0.316 µM, first compound 10 µM
[19] = second compound 1 µM, first compound 0.0316 µM
[20] = second compound 1 µM, first compound 0.1 µM
[21] = second compound 1 µM, first compound 0.316 µM
[22] = second compound 1 µM, first compound 1 µM
[23] = second compound 1 µM, first compound 3.16 µM
[24] = second compound 1 µM, first compound 10 µM
[25] = second compound 3.16 µM, first compound 0.0316 µM
[26] = second compound 3.16 µM, first compound 0.1 µM
[27] = second compound 3.16 µM, first compound 0.316 µM
[28] = second compound 3.16 µM, first compound 1 µM
[29] = second compound 3.16 µM, first compound 3.16 µM
[30] = second compound 3.16 µM, first compound 10 µM
[31] = second compound 10 µM, first compound 0.0316 µM
[32] = second compound 10 µM, first compound 0.1 µM
[33] = second compound 10 µM, first compound 0.316 µM
[34] = second compound 10 µM, first compound 1 µM
[35] = second compound 10 µM, first compound 3.16 µM
[36] = second compound 10 µM, first compound 10 µM
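Note: spheroids exposed to drugs for 7 days before viability reading.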
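Throughout, for viability, T/C: 100% = DMSO vehicle control viability.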

- IC50 (second compound 0.0316 µM): 769 nM
- IC50 (second compound 0.1 µM): 481 nM
- IC50 (second compound 0.316 µM): 343 nM
- IC50 (second compound 1 µM): 592 nM
- IC50 (second compound 3.16 µM): 196 nM
- IC50 (second compound 10 µM): < 31.6 nM
Structure (SMILES): C=CCn1c(=O)c2cnc(Nc3ccc(N4CCN(C)CC4)cc3)nc2n1-c1cccc(C(C)(C)O)n1 + Cc1cnc(CNC(=O)c2c(=O)c3ccc(N4CCCN(C)CC4)nc3n3c2sc2ccccc23)cn1
- viability, T/C [1]: 88.4%
- viability, T/C [2]: 79.2%
- viability, T/C [3]: 61.2%
- viability, T/C [4]: 48.8%
- viability, T/C [5]: 32.6%
- viability, T/C [6]: 31.4%
- viability, T/C [7]: 78.3%
- viability, T/C [8]: 72.9%
- viability, T/C [9]: 55.3%
- viability, T/C [10]: 40.8%
- viability, T/C [11]: 38.3%
- viability, T/C [12]: 40.8%
- viability, T/C [13]: 84.8%
- viability, T/C [14]: 62.2%
- viability, T/C [15]: 50.7%
- viability, T/C [16]: 40.9%
- viability, T/C [17]: 38.5%
- viability, T/C [18]: 26.8%
- viability, T/C [19]: 62.9%
- viability, T/C [20]: 60%
- viability, T/C [21]: 58.4%
- viability, T/C [22]: 41.9%
- viability, T/C [23]: 36.5%
- viability, T/C [24]: 24.3%
- viability, T/C [25]: 50.6%
- viability, T/C [26]: 54.3%
- viability, T/C [27]: 49.1%
- viability, T/C [28]: 39.1%
- viability, T/C [29]: 32.7%
- viability, T/C [30]: 25.6%
- viability, T/C [31]: 43.4%
- viability, T/C [32]: 12.9%
- viability, T/C [33]: 36.4%
- viability, T/C [34]: 33.8%
- viability, T/C [35]: 20.8%
- viability, T/C [36]: 0.23%

- IC50 (second compound 0.0316 µM): 1720 nM
- IC50 (second compound 0.1 µM): 1320 nM
- IC50 (second compound 0.316 µM): 1010 nM
- IC50 (second compound 1 µM): 830 nM
- IC50 (second compound 3.16 µM): < 31.6 nM
- IC50 (second compound 10 µM): < 31.6 nM
Structure (SMILES): CC(C)(O)C1CCC(Nc2ccc3ncc(-c4cccc(C(F)(F)F)c4)n3n2)CC1 (stereo unspecified) + Cc1cnc(CNC(=O)c2c(=O)c3ccc(N4CCCN(C)CC4)nc3n3c2sc2ccccc23)cn1
- viability, T/C [1]: 89.8%
- viability, T/C [2]: 82.3%
- viability, T/C [3]: 88.3%
- viability, T/C [4]: 77.7%
- viability, T/C [5]: 18.8%
- viability, T/C [6]: 14.4%
- viability, T/C [7]: 81.9%
- viability, T/C [8]: 79.9%
- viability, T/C [9]: 74.2%
- viability, T/C [10]: 59.5%
- viability, T/C [11]: 20.5%
- viability, T/C [12]: 18.2%
- viability, T/C [13]: 72.3%
- viability, T/C [14]: 69.5%
- viability, T/C [15]: 68.6%
- viability, T/C [16]: 50.5%
- viability, T/C [17]: 18.4%
- viability, T/C [18]: 15.9%
- viability, T/C [19]: 57.6%
- viability, T/C [20]: 53.6%
- viability, T/C [21]: 63.1%
- viability, T/C [22]: 47.8%
- viability, T/C [23]: 21.7%
- viability, T/C [24]: 15.1%
- viability, T/C [25]: 46.6%
- viability, T/C [26]: 46.5%
- viability, T/C [27]: 51.7%
- viability, T/C [28]: 45.2%
- viability, T/C [29]: 0.12%
- viability, T/C [30]: 0.13%
- viability, T/C [31]: 33.3%
- viability, T/C [32]: 13.8%
- viability, T/C [33]: 41.2%
- viability, T/C [34]: 0.19%
- viability, T/C [35]: 0.23%
- viability, T/C [36]: 0.18%

- IC50 (second compound 0.0316 µM): > 10000 nM
- IC50 (second compound 0.1 µM): > 10000 nM
- IC50 (second compound 0.316 µM): > 10000 nM
- IC50 (second compound 1 µM): > 10000 nM
- IC50 (second compound 3.16 µM): > 10000 nM
- IC50 (second compound 10 µM): < 31.6 nM
Structure (SMILES): COc1ncnc(C2CC2)c1-c1ncc2cnn(Cc3ccc(-c4nc(C(F)(F)F)cn4C(C)C)cc3)c2n1 + Cc1cnc(CNC(=O)c2c(=O)c3ccc(N4CCCN(C)CC4)nc3n3c2sc2ccccc23)cn1
- viability, T/C [1]: 90.2%
- viability, T/C [2]: 90.6%
- viability, T/C [3]: 78%
- viability, T/C [4]: 90.4%
- viability, T/C [5]: 86.9%
- viability, T/C [6]: 79%
- viability, T/C [7]: 84.4%
- viability, T/C [8]: 77.2%
- viability, T/C [9]: 74.7%
- viability, T/C [10]: 77.1%
- viability, T/C [11]: 85%
- viability, T/C [12]: 79.2%
- viability, T/C [13]: 72%
- viability, T/C [14]: 74.2%
- viability, T/C [15]: 67.9%
- viability, T/C [16]: 79.5%
- viability, T/C [17]: 70.2%
- viability, T/C [18]: 65.7%
- viability, T/C [19]: 62.8%
- viability, T/C [20]: 65%
- viability, T/C [21]: 65.1%
- viability, T/C [22]: 63.1%
- viability, T/C [23]: 64%
- viability, T/C [24]: 61.9%
- viability, T/C [25]: 53.1%
- viability, T/C [26]: 59.2%
- viability, T/C [27]: 51.6%
- viability, T/C [28]: 48.6%
- viability, T/C [29]: 59.8%
- viability, T/C [30]: 49.9%
- viability, T/C [31]: 44.6%
- viability, T/C [32]: 25.6%
- viability, T/C [33]: 41.5%
- viability, T/C [34]: 42.6%
- viability, T/C [35]: 40.7%
- viability, T/C [36]: 0.28%
